# Laboratory results as given in ChEMBL document CHEMBL4765322, “Novel curcumin derivatives as P-glycoprotein inhibitors: Molecular modeling, synthesis and sensitization of multidrug resistant cells to doxorubicin” (Eur J Med Chem, 2020).
# Legend:
# [1] = Cytotoxicity against human K562/4 cells assessed as reduction in cell viability measured after 72 hrs by MTT assay; format: cell-based; details: K562/4, 72 h
# [2] = Inhibition of P-gp mediated multidrug resistance in human K562/4 cells assessed as sensitization of cells to doxorubicin by measuring reduction in cell viability preincubated with compound for 30 mins prior to 1 uM doxorubicin addition and measured after 72 hrs by MTT assay; format: cell-based
# K562/4 = details: Homo sapiens
# Description: Inhibition of P-gp-mediated doxorubicin efflux in human K562/4 cells assessed as minimal concentration required for the effect by flow cytometric analysis
Structure (SMILES),IC50 [1],IC50 [2],MED (K562/4)
COc1cc(/C=C/c2cc(/C=C/c3ccc(O)c(OC)c3)n(-c3ccc(C(=O)OCC(F)(F)F)cc3)n2)ccc1O,> 25 µM,,
COc1ccc(/C=C/c2cc(/C=C/c3ccc(OC)c(OC)c3)n(-c3ccc(C(=O)NCC(C)C)cc3)n2)cc1OC,> 50 µM,0.4 µM,
CCOC(=O)c1ccc(-n2nc(/C=C/c3ccc(O)cc3)cc2/C=C/c2ccc(O)cc2)cc1,11.1 µM,,
CCNC(=S)c1ccc(-n2nc(/C=C/c3ccc(OC)c(OC)c3)cc2/C=C/c2ccc(OC)c(OC)c2)cc1,> 50 µM,0.5 µM,
COc1cc(/C=C/c2cc(/C=C/c3ccc(O)c(OC)c3)n(-c3ccc(C(=O)OC(C)C)cc3)n2)ccc1O,12.5 µM,,
COc1cc(/C=C/c2cc(/C=C/c3ccc(O)c(OC)c3)n(-c3ccc(C(=O)OC/C=C(\C)CCC=C(C)C)cc3)n2)ccc1O,> 25 µM,,
CCOC(=O)c1ccc(-n2nc(/C=C/c3ccc(O)c(OC)c3)cc2/C=C/c2ccc(O)c(OC)c2)cc1,10.2 µM,,
COc1cc(/C=C/c2cc(/C=C/c3ccc(O)c(OC)c3)n(-c3ccc(C(=O)OC/C=C(\C)CC/C=C(\C)CCC=C(C)C)cc3)n2)ccc1O,> 25 µM,,
COc1cc2c(cc1OC)CN(CCc1ccc(NC(=O)c3cc(OC)c(OC)cc3NC(=O)c3cnc4ccccc4c3)cc1)CC2,,,1 µM
CCNC(=O)c1ccc(-n2nc(/C=C/c3ccc4c(c3)OCO4)cc2/C=C/c2ccc3c(c2)OCO3)cc1,> 50 µM,,
CCOC(=O)c1ccc(-n2nc(/C=C/c3ccc(OC)c(OC)c3)cc2/C=C/c2ccc(OC)c(OC)c2)cc1,> 50 µM,0.8 µM,
COc1cc(/C=C/c2cc(/C=C/c3ccc(O)c(OC)c3)n(-c3ccc(F)cc3)n2)ccc1O,10.8 µM,,
CCOC(=O)c1ccc(-n2nc(/C=C/c3ccc(OC)c(OC)c3)cc2/C=C/c2ccc(OC)c(OC)c2)cc1F,> 50 µM,0.2 µM,
COc1cc(/C=C/c2cc(/C=C/c3ccc(O)c(OC)c3)n(-c3ccc(C(=O)OC(C)(C)C)cc3)n2)ccc1O,> 25 µM,,
CCNC(=O)c1ccc(-n2nc(/C=C/c3ccc(O)c(OC)c3)cc2/C=C/c2ccc(O)c(OC)c2)cc1,4.3 µM,,
COC(=O)c1ccc(-n2nc(/C=C/c3ccc(O)c(OC)c3)cc2/C=C/c2ccc(O)c(OC)c2)cc1,9.6 µM,,
CCNC(=O)c1ccc(-n2nc(/C=C/c3ccc(OC)c(OC)c3)cc2/C=C/c2ccc(OC)c(OC)c2)cc1,> 50 µM,0.2 µM,
CCNS(=O)(=O)c1ccc(-n2nc(/C=C/c3ccc(OC)c(OC)c3)cc2/C=C/c2ccc(OC)c(OC)c2)cc1,> 50 µM,0.5 µM,
COc1ccc(/C=C/c2cc(/C=C/c3ccc(OC)c(OC)c3)n(-c3ccc(C(=O)N4CCCC4)cc3)n2)cc1OC,> 50 µM,0.5 µM,
CCOC(=O)c1ccc(-n2nc(/C=C/c3ccc(O)cc3)cc2/C=C/c2ccc(O)cc2)cc1F,10.3 µM,,
CCOC(=O)c1ccc(-n2nc(/C=C/c3ccc(O)c(OC)c3)cc2/C=C/c2ccc(O)c(OC)c2)cc1F,5.4 µM,,
COc1cc(/C=C/c2cc(/C=C/c3ccc(O)c(OC)c3)n(-c3ccc(C(=O)OCC(C)C)cc3)n2)ccc1O,6.4 µM,,
CCOC(=O)c1ccc(-n2nc(/C=C/c3ccc(OC)c(OC)c3)cc2/C=C/c2ccc(OC)c(OC)c2)cc1[N+](=O)[O-],> 50 µM,,
